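Step 1: Grow cells in 96-well plates. Step 2: Expose to compound for 48 hours at 5 concentrations. Step 3: Interpolate endpoints linearly; if unreached, use highest concentration. At the TGI there is no net growth.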 Where a SMILES comes first, the peptide text is derived from it.
Columns and labels:
Experiment in all cases: NCI tumour cell line growth inhibition, 48 h
SK-MEL-2 melanoma = system: SK-MEL-2 melanoma
SK-MEL-5 melanoma = system: SK-MEL-5 melanoma
SR leukemia = system: SR leukemia
CCRF-CEM leukemia = system: CCRF-CEM leukemia
OVCAR-3 ovarian = system: OVCAR-3 ovarian
SNB-75 CNS = system: SNB-75 CNS
MDA-MB-231 breast = system: MDA-MB-231 breast
M14 melanoma = system: M14 melanoma
OVCAR-8 ovarian = system: OVCAR-8 ovarian
OVCAR-4 ovarian = system: OVCAR-4 ovarian
T-47D breast = system: T-47D breast
MDA-N = system: MDA-N
SN12C renal = system: SN12C renal
DU-145 prostate = system: DU-145 prostate
K-562 leukemia = system: K-562 leukemia
NCI/ADR-RES ovarian = system: NCI/ADR-RES ovarian
MCF7 breast = system: MCF7 breast
A498 renal = system: A498 renal
HCC-2998 colon = system: HCC-2998 colon

Row | Compound | TGI (SK-MEL-2 melanoma) [µM] | TGI (SK-MEL-5 melanoma) [µM] | TGI (SR leukemia) [µM] | TGI (CCRF-CEM leukemia) [µM] | TGI (OVCAR-3 ovarian) [µM] | TGI (SNB-75 CNS) [µM] | TGI (MDA-MB-231 breast) [µM] | TGI (M14 melanoma) [µM] | TGI (OVCAR-8 ovarian) [µM] | TGI (OVCAR-4 ovarian) [µM] | TGI (T-47D breast) [µM] | TGI (MDA-N) [µM] | TGI (SN12C renal) [µM] | TGI (DU-145 prostate) [µM] | TGI (K-562 leukemia) [µM] | TGI (NCI/ADR-RES ovarian) [µM] | TGI (MCF7 breast) [µM] | TGI (A498 renal) [µM] | TGI (HCC-2998 colon) [µM]
1 | O=C(Nc1sccc1S(=O)(=O)c1ccc(Cl)cc1)c1ccccc1 | > 100 | > 100 | > 100 | > 100 | > 100 | > 100 | > 100 | > 100 | > 100 | > 100 | > 100 | > 100 | > 100 | > 100 | > 100 | > 100 | > 100 | > 100 | –
2 | C[C@]12CC[C@H]3[C@@H](CCC4=CC(=O)CC[C@@]43C)[C@@H]1CC[C@@H]2C(=O)Nc1ccc([N+](=O)[O-])c(C(F)(F)F)c1 | 33.2 | 32.5 | 87.4 | 71.3 | 60 | – | 43.4 | – | 90.9 | 34.9 | 37.8 | > 10 | 41 | 42.3 | 73.7 | 38.5 | 30.5 | 33.6 | 26.4
3 | CC1OC(OC2C(CO)OC(O[C@H]3CC[C@@]4(C)C(=CC[C@H]5[C@@H]6C[C@@H]7O[C@](O)(CC[C@H](C)COC8OC(CO)C(O)C(O)C8O)[C@@H](C)[C@@H]7[C@@]6(C)CC[C@@H]54)C3)C(OC3OC(C)C(O)C(O)C3O)C2O)C(O)C(O)C1O (some centres undefined) | 20 | > 32.8 | > 100 | 4.47 | > 29.3 | 4.78 | 30.8 | – | 28.9 | 28.8 | 17 | 11.3 | > 26 | 5.92 | > 33.4 | 18.4 | > 65.5 | > 100 | > 37.9
4 | COc1cc([C@H]2CC(=O)C[C@@H](c3cc(OC)c(OC)c(OC)c3)C23C(=O)c2ccccc2C3=O)cc(OC)c1OC | > 100 | > 100 | > 100 | > 100 | > 100 | > 100 | > 100 | > 100 | > 100 | > 100 | > 100 | > 100 | > 100 | > 100 | > 100 | > 100 | > 100 | – | > 100
5 | CNC(=O)C1CCCN1C(=O)C(Cc1cnc[nH]1)NC(=O)C1CCC(=O)N1 (centres undefined) | – | > 100 | > 100 | > 100 | > 100 | > 100 | > 100 | > 100 | > 100 | > 100 | > 100 | > 100 | > 100 | > 100 | > 100 | > 100 | > 100 | – | > 100
6 | C/C=N\n1c(C)c(C#N)c(C#N)c1N | > 100 | > 100 | > 100 | > 100 | > 100 | > 100 | > 100 | > 100 | > 100 | > 100 | > 100 | > 100 | > 100 | > 100 | > 100 | > 100 | > 100 | > 100 | > 100
7 | CC(=O)OC[C@@]1(C)[C@@H]2[C@@H]3[C@@]4(CO[C@]3(C)C(=O)[C@@]3(O)C[C@H](C)[C@H](OC(C)=O)[C@@H]3[C@H]4OC(C)=O)[C@H](OC(=O)c3ccccc3)C[C@@H]21 | > 100 | > 100 | > 100 | > 100 | > 100 | > 100 | > 100 | > 100 | > 100 | > 100 | > 100 | > 100 | > 100 | > 100 | > 100 | > 100 | > 100 | > 100 | > 100
8 | COc1cc(C2S/C(=C/c3ccccc3)C(=O)N2c2cc(Cl)c(Cl)cc2Cl)cc(OC)c1OC (centres undefined) | > 100 | > 100 | > 69.4 | > 88.9 | > 100 | 19.1 | > 100 | > 100 | > 100 | > 100 | > 100 | > 100 | > 100 | > 100 | > 78.3 | > 100 | > 100 | > 78 | > 100
9 | CC1=NN(c2cccc(Cl)c2)C(=N/c2nc3ccccc3s2)/C1=C\c1cccs1 | 65.4 | > 100 | 64.8 | 47.1 | 45.5 | > 100 | > 100 | > 100 | > 100 | > 100 | > 100 | > 100 | – | > 100 | 93.4 | 56.5 | > 100 | 82.5 | > 100
10 | O=c1c2cc(-c3ccccc3)cnc2sn1-c1ccc(Oc2ccccc2)cc1 | > 100 | – | > 100 | 82.9 | > 100 | 75.9 | 34.9 | > 100 | > 100 | 51.9 | > 100 | > 100 | 89.8 | > 100 | > 100 | 80.1 | > 100 | 78.6 | > 100
11 | CCC12CC(c3ccccc3)C(C(=O)N1)C(=O)N2 (centres undefined) | > 100 | > 100 | > 100 | > 100 | > 100 | > 100 | > 100 | > 100 | > 100 | > 100 | > 100 | > 100 | > 100 | > 100 | > 100 | > 100 | > 100 | > 100 | –
12 | COC(=O)C1(Cc2cccc(C)c2)Cc2c(C)cccc2C1=O (centres undefined) | > 100 | > 100 | > 100 | > 100 | > 100 | > 100 | > 100 | > 100 | > 100 | > 100 | > 100 | 34.5 | > 100 | > 100 | > 100 | 72.2 | 90.8 | > 100 | > 100
13 | Cc1coc2c1C(=O)C(=O)c1c-2ccc2c1CCCC2(C)C | 6.94 | 1.19 | 7.03 | > 100 | 1.47 | 16.3 | > 100 | 2.46 | > 100 | > 100 | > 100 | 2.8 | > 30.1 | 9.9 | 11.5 | > 100 | 5.89 | 25.6 | 21.7
14 | Nc1ncnc2c1ncn2C1C=CC(COS(N)(=O)=O)C1 (centres undefined) | > 100 | > 100 | > 100 | > 100 | > 100 | > 100 | > 100 | > 100 | > 100 | > 100 | > 100 | > 100 | > 100 | > 100 | > 100 | > 100 | > 100 | – | > 100
15 | COc1ccc2oc(=O)c(-c3nc4ccccc4o3)cc2c1 | > 100 | > 100 | 49.7 | > 100 | > 100 | > 100 | > 100 | > 100 | > 100 | > 100 | > 100 | > 100 | > 100 | > 100 | > 100 | > 100 | > 100 | > 100 | > 100
16 | CC1=NN(C(=O)CC(=O)Nc2cccc(C)c2)C(=O)C1N=Nc1ccc(S(=O)(=O)c2ccc(N=NC3C(=O)N(C(=O)CC(=O)Nc4cccc(C)c4)N=C3C)cc2)cc1 (centres undefined) | > 100 | > 100 | > 100 | > 100 | > 100 | > 100 | > 100 | > 100 | > 100 | > 100 | > 100 | > 100 | > 100 | > 100 | > 100 | > 100 | > 100 | > 100 | > 100
17 | Cc1sc(Nc2ccccc2[N+](=O)[O-])c(C#N)c1C | – | – | > 100 | > 100 | 61.2 | 39.9 | 65.8 | > 100 | > 100 | > 100 | > 100 | > 100 | > 100 | > 100 | > 100 | 96.6 | > 100 | > 100 | > 100
18 | CNC(=O)CNC(=O)C(NC(=O)CNC(=O)C1CCCN1C(=O)C(C)NC(=O)C(NC(C)=O)C(C)C)C(C)C (centres undefined) (Ac-VAPGVG-NHMe; configuration not given here) | > 100 | – | > 100 | > 100 | > 100 | – | > 100 | > 100 | > 100 | > 100 | > 100 | > 100 | > 100 | > 100 | > 100 | > 100 | > 100 | > 100 | > 100
19 | Clc1ccc(C2=C(c3ccccc3)C(c3ccc(Cl)cc3)N3C(=N[C@H]4CCCC[C@@H]43)N2)cc1 (some centres undefined) | 29.9 | 24.8 | 5.56 | 26 | 26.7 | 30 | 29.8 | 24.8 | 29.5 | 21.4 | 31.4 | 28 | – | 25.9 | 7.98 | 28.1 | 21.2 | 31.1 | 10.4
20 | CCCC(=O)NC(C(=O)OCC)(N1CCOCC1)C(F)(F)F (centres undefined) | > 100 | > 100 | > 100 | > 100 | > 100 | > 100 | > 100 | > 100 | > 100 | > 100 | > 100 | > 100 | > 100 | > 100 | > 100 | > 100 | > 100 | – | > 100
21 | OCCCc1cc(O)c2c(c1)C(CO)C(c1ccc(O)c(O)c1)O2 (centres undefined) | > 100 | > 100 | > 100 | > 100 | > 100 | – | > 100 | > 100 | > 100 | – | > 100 | > 100 | > 100 | > 100 | > 100 | > 100 | > 100 | > 100 | > 100
22 | COCCN(CCOC)C(=O)COc1c2cc(C(C)(C)C)cc1Cc1cc(C(C)(C)C)cc(c1OCC(=O)N(CCOC)CCOC)Cc1cc(C(C)(C)C)cc(c1OCC(=O)N(CCOC)CCOC)Cc1cc(C(C)(C)C)cc(c1OCC(=O)N(CCOC)CCOC)Cc1cc(C(C)(C)C)cc(c1OCC(=O)N(CCOC)CCOC)C2 | 3.19 | 2.78 | 3.63 | – | 10.2 | 0.576 | 5.06 | 13 | 22.8 | 17.5 | 19.5 | 12.1 | 11.4 | 11.1 | – | 33 | 6.42 | 9.53 | 18.3
23 | CCC1c2[nH]c3ccccc3c2C[C@H]2C(=O)N3CCC[C@H]3C(=O)N12 (some centres undefined) | > 100 | > 100 | > 100 | – | > 100 | – | > 100 | > 100 | > 100 | > 100 | > 100 | > 100 | > 100 | > 100 | > 100 | > 100 | > 100 | > 100 | > 100
